Data as given in US12414911B2, “Topical compositions and methods of use” (priority 2012, dated 2025).

Legend:
P. Acnes = assay: Agar-solid Diffusion Method, inhibition zone; type: cell-based; conditions: Cutibacterium acnes
C. Albicans = assay: Agar-solid Diffusion Method, inhibition zone; type: cell-based; conditions: Candida albicans
T. Rubrum = assay: Agar-solid Diffusion Method, inhibition zone; type: cell-based; conditions: Trichophyton rubrum
Staph Aureus = assay: Agar-solid Diffusion Method, inhibition zone; type: cell-based; conditions: Staphylococcus aureus
E. Coli = assay: Agar-solid Diffusion Method, inhibition zone; type: cell-based; conditions: Escherichia coli
[1] = test system: LTB4 release from macrophages; assay: Inhibition of LTB4 release from stimulated macrophage cell line (radioimmunoassay); type: cell-based; conditions: NDGA 25 uM, positive control
Description: MFSO and the MFB skin extract have Anti-inflammatory Activity.
MFSO and the MFB skin extract were dissolved in DMSO and added to cell culture medium at a stock concentration for use in these in vitro experiments. The ability of MFSO to function as an inhibitor of LTB4 release was evaluated using a macrophage cell line followed by the addition of calcium iontophore for stimulation of LTB4 and the use of a radioimmunoassay (Amersham) for LTB4 detection as previously described (Garrido G, González D, Lemus Y, Garcia D, Lodeiro L, Quintero G, Delporte C, Núñez-Sellés A J, Delgado R. In vivo and in vitro anti-inflammatory activity of Mangifera indica L. extract (VIMANG). Pharmacol Res. 2004 August; 50 (2):143-9). NDGA (25 uM) is a known positive control that inhibits LTB4 release and the vehicle control consisted of DMSO in culture medium with no MFSO.

[2] = UVB SPF activity of formulations; type: in vivo, human; conditions: Octinoxate 3% alone
Description: Formulations containing MFSO and octyl methoxycinnamate (Octinoxate), alone and in combination, were prepared without changing the vehicle base and tested for UVB SPF activity (2 subjects).
To evaluate for SPF boosting effects of MFSO, a concentration of Octinoxate was selected that gave SPF values that would allow for its efficient absorption and avoid the saturation effect that occurs when higher concentrations of sunscreens are used.

Normal human spermatozoa = assay: Spermicidal activity (Sander-Cramer assay); type: cell-based; design: key: +: Mobile; −: Immobile; ±: 90% lost mobility; conditions: 1% concentration
Excerpt: Normal human spermatozoa were used to assess the spermicidal activity (Sander-Cramer assay) of MFSO as described (Benhong Z., Zhenpeng Q, Gang L, Chun L, Zhang J. Spermicidal and antigonococcal effects of tannins from pomegranate rind. Journal of Medicinal Plants Research 2012 February; 6 (7); 1334-1339). Nonoxynol-9 was used as a positive reference standard and semen added to physiological saline was used as the negative control. Semen samples were donated by 3 healthy fertile men. The minimum MFSO concentration that caused 100% immobilization of sperm within 20 seconds was considered to be the minimal effective concentration (MEC).

O=C(N[C@H](CO)[C@H](O)c1ccc([N+](=O)[O-])cc1)C(Cl)Cl [Chloramphenicol]
zone of inhibition at 30 µM (P. Acnes; 30 uM): 25 mm
zone of inhibition at 30 µM (C. Albicans; 30 uM): 0 mm
zone of inhibition at 30 µM (T. Rubrum; 30 uM): 0 mm
zone of inhibition at 30 µM (Staph Aureus; 30 uM): 25 mm
zone of inhibition at 30 µM (E. Coli; 30 uM): 0 mm

O=C(O)c1cn(C2CC2)c2cc(N3CCNCC3)c(F)cc2c1=O [Ciprofloxacin]
zone of inhibition at 10 µM (P. Acnes; 10 uM): 22 mm
zone of inhibition at 10 µM (C. Albicans; 10 uM): 0 mm
zone of inhibition at 10 µM (T. Rubrum; 10 uM): 0 mm
zone of inhibition at 10 µM (Staph Aureus; 10 uM): 25 mm
zone of inhibition at 10 µM (E. Coli; 10 uM): 25 mm

CC(=O)N1CCN(c2ccc(OCC3COC(Cn4ccnc4)(c4ccc(Cl)cc4Cl)O3)cc2)CC1 (stereo not shown) [Ketoconazole]
zone of inhibition at 1000 µM (P. Acnes; 1 mM): 0 mm
zone of inhibition at 1000 µM (C. Albicans; 1 mM): 25 mm
zone of inhibition at 1000 µM (T. Rubrum; 1 mM): 25 mm
zone of inhibition at 1000 µM (Staph Aureus; 1 mM): 0 mm
zone of inhibition at 1000 µM (E. Coli; read-out: Inhibition Zone): 0 mm

CC(Cc1ccc(O)c(O)c1)C(C)Cc1ccc(O)c(O)c1 (stereo not shown) [NDGA]
inhibition of LTB4 release [1]: 98%

CCCCC(CC)COC(=O)C=Cc1ccc(OC)cc1 (stereo not shown) [Octinoxate, octyl methoxycinnamate]
SPF [2]: 3

Nonoxynol-9
Sperm Motility (Normal human spermatozoa; action time 20 seconds): −
Sperm Motility (Normal human spermatozoa; action time 60 seconds): −
